The results in this text go back to patent publication US20210283261A1, “Compositions and Methods for Treating ALK-Mediated Cancer” (ICAHN SCHOOL OF MEDICINE AT MOUNT SINAI, priority 2017, published 2021).

T1 sequence (Q9UM73 with tags, fused parts or gaps): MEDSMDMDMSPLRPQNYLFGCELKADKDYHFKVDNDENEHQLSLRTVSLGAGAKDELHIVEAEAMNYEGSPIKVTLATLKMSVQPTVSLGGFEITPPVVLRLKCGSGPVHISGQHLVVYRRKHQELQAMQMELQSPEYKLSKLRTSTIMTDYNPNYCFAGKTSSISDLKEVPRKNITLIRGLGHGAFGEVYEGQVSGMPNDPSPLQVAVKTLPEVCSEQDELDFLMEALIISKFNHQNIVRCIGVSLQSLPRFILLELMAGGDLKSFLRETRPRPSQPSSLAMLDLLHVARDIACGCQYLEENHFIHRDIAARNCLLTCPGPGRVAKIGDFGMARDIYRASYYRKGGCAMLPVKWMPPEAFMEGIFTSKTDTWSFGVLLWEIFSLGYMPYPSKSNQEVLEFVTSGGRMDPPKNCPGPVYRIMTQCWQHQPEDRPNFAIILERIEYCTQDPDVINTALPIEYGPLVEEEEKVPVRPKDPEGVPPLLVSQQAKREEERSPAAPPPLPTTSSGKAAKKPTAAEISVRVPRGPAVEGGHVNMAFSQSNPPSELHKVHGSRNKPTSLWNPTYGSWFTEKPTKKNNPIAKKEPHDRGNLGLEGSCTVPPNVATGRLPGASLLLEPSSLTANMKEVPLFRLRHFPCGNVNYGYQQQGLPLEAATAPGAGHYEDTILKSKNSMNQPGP

This assay concerns the target T1, NPM-ALK fusion protein (Homo sapiens, UniProt Q9UM73).
T1 construct: endogenous in cells; host or cells: SU-DHL-1; the other entry of the earlier key: NPM1 (P06748, Nucleophosmin)
The assay is described as follows: Western blot of NPM-ALK fusion protein levels in SU-DHL-1 cells. The settings on record: SU-DHL-1 cells, 30 nM, Western blot; read-out: ALK fusion protein degradation, SU-DHL-1 (30 nM). It counts as cell-based. Here is the method:
Cells were cultured in a 37° C. incubator with 5% CO2.
Cells were washed with cold PBS once and lysed in 1× Laemmli loading buffer directly. […] Membrane was blocked in 5% milk in Tris-buffered saline and Tween 20 (TBST) for 1 h at room temperature, followed by incubation with a primary antibody overnight at 4° C., and a horseradish peroxidase (HRP)-conjugated secondary antibody for 1 h at room temperature. The membrane was imaged by a ChemiDoc MP imaging system (BIO-RAD). Antibodies against GAPDH (abeam), Phospho-ALK (Tyr1507), ALK (Cell Signaling Technology), Tubulin (Santa Cruz) were purchased commercially.
SU-DHL-1 suspension cells were seeded in 12-well plates at a density of 6×10^5/mL and treated with DMSO or indicated compounds at 30 nM or 100 nM for indicated time.
SU-DHL-1 cells were seeded in 12-well plates at a density of 4×10^5/mL and treated with DMSO or indicated serial dilutions of compounds for 16 h. The NPM-ALK fusion protein levels were determined by Western blot and normalized against GPADH (right panel).
In general terms: Immunoblotting shows a protein as a band on a membrane.
For `Cc1cc(Nc2ncc(Cl)c(Nc3ccccc3S(=O)(=O)C(C)C)n2)c(OC(C)C)cc1C1CCN(CC(=O)NCCCNc2cccc3c2C(=O)N(C2CCC(=O)NC2=O)C3=O)CC1` (stereo not drawn) [CZ40-79, 2-(4-(4-((5-Chloro-4-((2-(isopropylsulfonyl)phenyl)amino)pyrimidin-2-yl)amino)-5-isopropoxy-2-methylphenyl)piperidin-1-yl)-N-(3-((2-(2,6-dioxopiperidin-3-yl)-1,3-dioxoisoindolin-4-yl)amino)propyl)acetamide], the Dmax at 0.03 µM was more than 80%.

For the compound `Cc1cc(Nc2ncc(Cl)c(Nc3ccccc3S(=O)(=O)C(C)C)n2)c(OC(C)C)cc1C1CCN(CC(=O)NCCCCNc2cccc3c2C(=O)N(C2CCC(=O)NC2=O)C3=O)CC1` (stereo not drawn) [CZ40-80, 2-(4-(4-((5-Chloro-4-((2-(isopropylsulfonyl)phenyl)amino)pyrimidin-2-yl)amino)-5-isopropoxy-2-methylphenyl)piperidin-1-yl)-N-(4-((2-(2,6-dioxopiperidin-3-yl)-1,3-dioxoisoindolin-4-yl)amino)butyl)acetamide], the Dmax at 0.03 µM was in the range of 20 to 80%.

Regarding `Cc1cc(Nc2ncc(Cl)c(Nc3ccccc3S(=O)(=O)C(C)C)n2)c(OC(C)C)cc1C1CCN(CC(=O)NCCCCCNc2cccc3c2C(=O)N(C2CCC(=O)NC2=O)C3=O)CC1` (stereo not drawn) [CZ40-81, 2-(4-(4-((5-Chloro-4-((2-(isopropylsulfonyl)phenyl)amino)pyrimidin-2-yl)amino)-5-isopropoxy-2-methylphenyl)piperidin-1-yl)-N-(5-((2-(2,6-dioxopiperidin-3-yl)-1,3-dioxoisoindolin-4-yl)amino)pentyl)acetamide], the Dmax at 0.03 µM is more than 80%.

`Cc1cc(Nc2ncc(Cl)c(Nc3ccccc3S(=O)(=O)C(C)C)n2)c(OC(C)C)cc1C1CCN(CC(=O)NCCCCCCNc2cccc3c2C(=O)N(C2CCC(=O)NC2=O)C3=O)CC1` (stereo not drawn) [CZ40-82, 2-(4-(4-((5-Chloro-4-((2-(isopropylsulfonyl)phenyl)amino)pyrimidin-2-yl)amino)-5-isopropoxy-2-methylphenyl)piperidin-1-yl)-N-(6-((2-(2,6-dioxopiperidin-3-yl)-1,3-dioxoisoindolin-4-yl)amino)hexyl)acetamide]: the Dmax at 0.03 µM is more than 80%.

As for `Cc1cc(Nc2ncc(Cl)c(Nc3ccccc3S(=O)(=O)C(C)C)n2)c(OC(C)C)cc1C1CCN(CC(=O)NCCCCCCCNc2cccc3c2C(=O)N(C2CCC(=O)NC2=O)C3=O)CC1` (stereo not drawn) [CZ40-83, 2-(4-(4-((5-Chloro-4-((2-(isopropylsulfonyl)phenyl)amino)pyrimidin-2-yl)amino)-5-isopropoxy-2-methylphenyl)piperidin-1-yl)-N-(7-((2-(2,6-dioxopiperidin-3-yl)-1,3-dioxoisoindolin-4-yl)amino)heptyl)acetamide], the Dmax at 0.03 µM was more than 80%.

Regarding `Cc1cc(Nc2ncc(Cl)c(Nc3ccccc3S(=O)(=O)C(C)C)n2)c(OC(C)C)cc1C1CCN(CC(=O)NCCCCCCCCNc2cccc3c2C(=O)N(C2CCC(=O)NC2=O)C3=O)CC1` (stereo not drawn) [CZ40-84, 2-(4-(4-((5-Chloro-4-((2-(isopropylsulfonyl)phenyl)amino)pyrimidin-2-yl)amino)-5-isopropoxy-2-methylphenyl)piperidin-1-yl)-N-(8-((2-(2,6-dioxopiperidin-3-yl)-1,3-dioxoisoindolin-4-yl)amino)octyl)acetamide], the Dmax at 0.03 µM is 20 to 80%.

`Cc1cc(Nc2ncc(Cl)c(Nc3ccccc3S(=O)(=O)C(C)C)n2)c(OC(C)C)cc1C1CCN(CC(=O)NCCOCC(=O)N[C@H](C(=O)N2C[C@H](O)C[C@H]2C(=O)NCc2ccc(-c3scnc3C)cc2)C(C)(C)C)CC1` [CZ40-85, (2S,4R)-1-((S)-2-(2-(2-(2-(4-(4-((5-Chloro-4-((2-(isopropylsulfonyl)phenyl)amino)pyrimidin-2-yl)amino)-5-isopropoxy-2-methylphenyl)piperidin-1-yl)acetamido)ethoxy)acetamido)-3,3-dimethylbutanoyl)-4-hydroxy-N-(4-(4-methylthiazol-5-yl)benzyl)pyrrolidine-2-carboxamide]: the Dmax at 0.03 µM is less than 20%.

`Cc1cc(Nc2ncc(Cl)c(Nc3ccccc3S(=O)(=O)C(C)C)n2)c(OC(C)C)cc1C1CCN(CC(=O)NCCOCCOCC(=O)N[C@H](C(=O)N2C[C@H](O)C[C@H]2C(=O)NCc2ccc(-c3scnc3C)cc2)C(C)(C)C)CC1` [CZ40-86, (2S,4R)-1-((S)-2-(tert-Butyl)-14-(4-(4-((5-chloro-4-((2-(isopropylsulfonyl)phenyl)amino)pyrimidin-2-yl)amino)-5-isopropoxy-2-methylphenyl)piperidin-1-yl)-4,13-dioxo-6,9-dioxa-3,12-diazatetradecanoyl)-4-hydroxy-N-(4-(4-methylthiazol-5-yl)benzyl)pyrrolidine-2-carboxamide]: the Dmax at 0.03 µM is less than 20%.

`Cc1cc(Nc2ncc(Cl)c(Nc3ccccc3S(=O)(=O)C(C)C)n2)c(OC(C)C)cc1C1CCN(CC(=O)NCCOCCOCCOCCOCCC(=O)N[C@H](C(=O)N2C[C@H](O)C[C@H]2C(=O)NCc2ccc(-c3scnc3C)cc2)C(C)(C)C)CC1` [CZ40-87, (2S,4R)-1-((S)-20-(tert-Butyl)-1-(4-(4-((5-chloro-4-((2-(isopropylsulfonyl)phenyl)amino)pyrimidin-2-yl)amino)-5-isopropoxy-2-methylphenyl)piperidin-1-yl)-2,18-dioxo-6,9,12,15-tetraoxa-3,19-diazahenicosan-21-oyl)-4-hydroxy-7V-(4-(4-methylthiazol-5-yl)benzyl)pyrrolidine-2-carboxamide]: the Dmax at 0.03 µM is less than 20%.

Regarding `Cc1cc(Nc2ncc(Cl)c(Nc3ccccc3S(=O)(=O)C(C)C)n2)c(OC(C)C)cc1C1CCN(CC(=O)NCCCCC(=O)N[C@H](C(=O)N2C[C@H](O)C[C@H]2C(=O)NCc2ccc(-c3scnc3C)cc2)C(C)(C)C)CC1` [CZ40-88, (2S,4R)-1-((S)-2-(5-(2-(4-(4-((5-Chloro-4-((2-(isopropylsulfonyl)phenyl)amino)pyrimidin-2-yl)amino)-5-isopropoxy-2-methylphenyl)piperidin-1-yl)acetamido)pentanamido)-3,3-dimethylbutanoyl)-4-hydroxy-N-(4-(4-methylthiazol-5-yl)benzyl)pyrrolidine-2-carboxamide], the Dmax at 0.03 µM fell in the range of 20 to 80%.

In the case of `Cc1cc(Nc2ncc(Cl)c(Nc3ccccc3S(=O)(=O)C(C)C)n2)c(OC(C)C)cc1C1CCN(CC(=O)NCCCCCC(=O)N[C@H](C(=O)N2C[C@H](O)C[C@H]2C(=O)NCc2ccc(-c3scnc3C)cc2)C(C)(C)C)CC1` [CZ40-89, (2S,4R)-1-((S)-2-(6-(2-(4-(4-((5-chloro-4-((2-(isopropylsulfonyl)phenyl)amino)pyrimidin-2-yl)amino)-5-isopropoxy-2-methylphenyl)piperidin-1-yl)acetamido)hexanamido)-3,3-dimethylbutanoyl)-4-hydroxy-N-(4-(4-methylthiazol-5-yl)benzyl)pyrrolidine-2-carboxamide], the Dmax at 0.03 µM was in the range of 20 to 80%.

On to `Cc1cc(Nc2ncc(Cl)c(Nc3ccccc3S(=O)(=O)C(C)C)n2)c(OC(C)C)cc1C1CCN(CC(=O)NCCCCCCC(=O)N[C@H](C(=O)N2C[C@H](O)C[C@H]2C(=O)NCc2ccc(-c3scnc3C)cc2)C(C)(C)C)CC1` [CZ40-90, (2S,4R)-1-((S)-2-(7-(2-(4-(4-((5-Chloro-4-((2-(isopropylsulfonyl)phenyl)amino)pyrimidin-2-yl)amino)-5-isopropoxy-2-methylphenyl)piperidin-1-yl)acetamido)heptanamido)-3,3-dimethylbutanoyl)-4-hydroxy-N-(4-(4-methylthiazol-5-yl)benzyl)pyrrolidine-2-carboxamide], for which the Dmax at 0.03 µM is less than 20%.
